Data as given in patent publication US6472348B1, “Pyridone derivatives and herbicides” (Kumiai Chemical Industry Co., Ltd., priority 1996, dated 2002).

What was measured:
[1] = test system: barnyardgrass (Ec); test: Test Example 1: herbicidal effects by paddy field soil treatment; type: in vivo; conditions: 100 g of the active ingredient per 10 ares, 21st day after the application, index 0-5 of Table 47;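 further: grade of growth control; 5 = at least 90%; 4 = 70 to 90%; 3 = 50 to 70%; 2 = 30 to 50%; 1 = 10 to 30%; 0 = under 10%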
In short: (§1)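 Scoring of herbicidal effect came 21 days after application of 100 g active ingredient per 10 ares to flooded (3 cm) paddy-soil pots sown with barnyardgrass, monochoria and bulrush, kept in a greenhouse.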

[2] = test system: bulrush (Sc); test: as above; type: in vivo; conditions: 100 g of the active ingredient per 10 ares, 21st day after the application, index 0-5 of Table 47;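 further: grade of growth control; 5 = at least 90%; 4 = 70 to 90%; 3 = 50 to 70%; 2 = 30 to 50%; 1 = 10 to 30%; 0 = under 10%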
In short: as §1

[3] = test system: monochoria (Mo); test: as above; type: in vivo; conditions: 100 g of the active ingredient per 10 ares, 21st day after the application, index 0-5 of Table 47;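 further: grade of growth control; 5 = at least 90%; 4 = 70 to 90%; 3 = 50 to 70%; 2 = 30 to 50%; 1 = 10 to 30%; 0 = under 10%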
In short: as §1

[4] = test system: Digitaria ciliaris (Di); test: Test Example 2: herbicidal effects by upland field soil treatment; type: in vivo; conditions: 100 g of the active ingredient per 10 ares, evaluated on the 21st day after application;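 further: grade of growth control; 5 = at least 90%; 4 = 70 to 90%; 3 = 50 to 70%; 2 = 30 to 50%; 1 = 10 to 30%; 0 = under 10%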
From the text: (§2) (Test on Herbicidal Effects by Upland Field Soil Treatment)

[5] = test system: barnyardgrass (Ec); test: as above; type: in vivo; conditions: 100 g of the active ingredient per 10 ares, evaluated on the 21st day after application
From the text: as §2

[6] = test system: common lambsquarters (Ch); test: as above; type: in vivo; conditions: 100 g of the active ingredient per 10 ares, evaluated on the 21st day after application
From the text: as §2

[7] = test system: pale smartweed (Po); test: as above; type: in vivo; conditions: 100 g of the active ingredient per 10 ares, evaluated on the 21st day after application
From the text: as §2

[8] = test system: rice flatsedge (Ci); test: as above; type: in vivo; conditions: 100 g of the active ingredient per 10 ares, evaluated on the 21st day after application
From the text: as §2

[9] = test system: slender amaranth (Am); test: as above; type: in vivo; conditions: 100 g of the active ingredient per 10 ares, evaluated on the 21st day after application
From the text: as §2

[10] = test system: Diaitaria ciliaris (Di); test: Test Example 3: herbicidal effects by upland field foliage treatment; type: in vivo; design: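 grade of growth control; 5 = at least 90%; 4 = 70 to 90%; 3 = 50 to 70%; 2 = 30 to 50%; 1 = 10 to 30%; 0 = under 10%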; conditions: 100 g active ingredient per 10 ares, evaluated 14th day after treatment
In short: (§3)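 Weeds were sown in sand-filled pots (surface area: 120 cm^2), covered with soil and grown in a greenhouse for 2 weeks before foliar treatment. Plants then stayed in the greenhouse, and herbicidal effect was scored against graded standards on the 14th day after treatment.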

[11] = test system: barnyardgrass (Ec); test: as above; type: in vivo; design: scale not given here; conditions: 100 g active ingredient per 10 ares, evaluated 14th day after treatment
In short: as §3

[12] = test system: common lambsquarters (Ch); test: as above; type: in vivo; design: scale not given here; conditions: 100 g active ingredient per 10 ares, evaluated 14th day after treatment
In short: as §3

[13] = test system: pale smartweed (Po); test: as above; type: in vivo; design: scale not given here; conditions: 100 g active ingredient per 10 ares, evaluated 14th day after treatment
In short: as §3

[14] = test system: rice flatsedge (Ci); test: as above; type: in vivo; design: scale not given here; conditions: 100 g active ingredient per 10 ares, evaluated 14th day after treatment
In short: as §3

[15] = test system: slender amaranth (Am); test: as above; type: in vivo; design: scale not given here; conditions: 100 g active ingredient per 10 ares, evaluated 14th day after treatment
In short: as §3

[16] = test system: wheat (Tr); test: Test Example 9: crop plant selectivity by upland field foliage treatment (wheat), phytotoxicity; conditions: dose 1.6 g ai/10a, 14th day after treatment
In short: (§4)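 Sand-filled pot, wheat + weeds co-sown; greenhouse 2 wk, then foliage treatment; greenhouse culture continued; visual scoring of weed control and crop injury at 14 d post-treatment per grading scale.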

[17] = test system: China jute (Ab); test: Test Example 9: crop plant selectivity by upland field foliage treatment (wheat), herbicidal effects; type: in vivo; design: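 grade of growth control; 5 = at least 90%; 4 = 70 to 90%; 3 = 50 to 70%; 2 = 30 to 50%; 1 = 10 to 30%; 0 = under 10%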; conditions: dose 1.6 g ai/10a, 14th day after treatment
In short: as §4

[18] = test system: common lambsquarters (Ch); test: as above; type: in vivo; design: scale not given here; conditions: dose 1.6 g ai/10a, 14th day after treatment
In short: as §4

[19] = test system: pale smartweed (Po); test: as above; type: in vivo; design: scale not given here; conditions: dose 1.6 g ai/10a, 14th day after treatment
In short: as §4

[20] = test system: slender amaranth (Am); test: as above; type: in vivo; design: scale not given here; conditions: dose 1.6 g ai/10a, 14th day after treatment
In short: as §4

[21] = test system: soybean (Gl); test: Test Example 10: crop plant selectivity by upland field foliage treatment (soybean), phytotoxicity; conditions: dose 1.6 g ai/10a, 14th day after treatment
Protocol: (§5) (Test on Crop Plant Selectivity by Upland Field Foliage Treatment)
(§6) In a plastic pot (surface area: 600 cm^2) filled with sand, soybean (Gl), pale smartweed (Po), slender amaranth (Am), common lambsquarters (Ch) and China jute (Ab) were sown and cultured in a green house for 2 weeks. […] The plants were then cultured in a green house, and the evaluation of the herbicidal effects and phytotoxicity was conducted on the 14th day after the treatment in accordance with the standards as identified in Table 47.

[22] = test system: China jute (Ab); test: Test Example 10: crop plant selectivity by upland field foliage treatment (soybean), herbicidal effects; type: in vivo; conditions: dose 1.6 g ai/10a, 14th day after treatment
Protocol: as §5, §6

[23] = test system: common lambsquarters (Ch); test: as above; type: in vivo; conditions: dose 1.6 g ai/10a, 14th day after treatment
Protocol: as §5, §6

[24] = test system: pale smartweed (Po); test: as above; type: in vivo; conditions: dose 1.6 g ai/10a, 14th day after treatment
Protocol: as §5, §6

[25] = test system: slender amaranth (Am); test: as above; type: in vivo; conditions: dose 1.6 g ai/10a, 14th day after treatment
Protocol: as §5, §6

[26] = test system: corn (Ze); test: Test Example 11: crop plant selectivity by upland field foliage treatment (corn), phytotoxicity; conditions: upland field foliage treatment, dose 1.6 g ai/10a, 14th day after treatment
In short: (§7)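 Corn with pale smartweed, slender amaranth, common lambsquarters and China jute sown in sand-filled pots and grown 2 weeks in a greenhouse before foliage treatment. Herbicidal effect and crop phytotoxicity scored on day 14 after treatment against a rating standard.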

[27] = test system: China jute (Ab); test: Test Example 11: crop plant selectivity by upland field foliage treatment (corn), herbicidal effects; type: in vivo; design: scale not given here; conditions: upland field foliage treatment (corn test), dose 1.6 g ai/10a, 14th day after treatment
In short: as §7

[28] = test system: common lambsquarters (Ch); test: as above; type: in vivo; design: scale not given here; conditions: upland field foliage treatment (corn test), dose 1.6 g ai/10a, 14th day after treatment
In short: as §7

[29] = test system: pale smartweed (Po); test: as above; type: in vivo; design: scale not given here; conditions: upland field foliage treatment (corn test), dose 1.6 g ai/10a, 14th day after treatment
In short: as §7

[30] = test system: slender amaranth (Am); test: as above; type: in vivo; design: scale not given here; conditions: upland field foliage treatment (corn test), dose 1.6 g ai/10a, 14th day after treatment
In short: as §7

Structure (SMILES) | Herbicidal effects Ec [1] | Herbicidal effects Sc [2] | Herbicidal effects Mo [3] | Herbicidal effects Di [4] | Herbicidal effects Ec [5] | Herbicidal effects Ch [6] | Herbicidal effects Po [7] | Herbicidal effects Ci [8] | Herbicidal effects Am [9] | Herbicidal effects Di [10] | Herbicidal effects Ec [11] | Herbicidal effects Ch [12] | Herbicidal effects Po [13] | Herbicidal effects Ci [14] | Herbicidal effects Am [15] | Phytotoxicity Tr [16] | Herbicidal effects Ab [17] | Herbicidal effects Ch [18] | Herbicidal effects Po [19] | Herbicidal effects Am [20] | also measured
Cn1c(C(F)(F)F)ccc(-c2cc(C(=O)OC3CCCC3)c(Cl)cc2F)c1=O [Compound 1-184] | 5 | 5 | 5 | 5 | 5 | 5 | 5 | 5 | 5 | 5 | 5 | 5 | 5 | 5 | 5 | 2 | 5 | 5 | 5 | 5 | Phytotoxicity Gl [21]: 2; Herbicidal effects Ab [22]: 5; Herbicidal effects Ch [23]: 5; Herbicidal effects Po [24]: 5; Herbicidal effects Am [25]: 5; Phytotoxicity Ze [26]: 1; Herbicidal effects Ab [27]: 5; Herbicidal effects Ch [28]: 5; Herbicidal effects Po [29]: 5; Herbicidal effects Am [30]: 5
CCCOCc1cc2c(-c3ccc(C(F)(F)F)n(C)c3=O)c(F)cc(Cl)c2o1 [Compound 4-32] | 5 | 5 | 5 | 5 | 5 | 5 | 5 | 5 | 5 | 5 | 5 | 5 | 5 | 5 | 5 | 2 | 5 | 5 | 5 | 5 | Phytotoxicity Gl [21]: 2; Herbicidal effects Ab [22]: 5; Herbicidal effects Ch [23]: 5; Herbicidal effects Po [24]: 5; Herbicidal effects Am [25]: 5; Phytotoxicity Ze [26]: 2; Herbicidal effects Ab [27]: 5; Herbicidal effects Ch [28]: 5; Herbicidal effects Po [29]: 5; Herbicidal effects Am [30]: 5
